From US20260234173A1, “STRUCTURED MOLECULAR VECTORS FOR ANTI-INFLAMMATORY COMPOUNDS AND USES THEREOF” (Universite Claude Bernard Lyon 1, priority 2019, published 2026)

Experiments:
[1] = test system: fully amygdala-kindled rats; experiment: Seizure severity in fully amygdala-kindled rats (Racine's scale); type: in vivo, rat
Experimental: All animal procedures were in compliance with the guidelines of the European Union (directive 2010-63), regulating animal experimentation, and have been approved by the ethical committee of the Claude Bernard Lyon 1 University. Male Sprague-Dawley rats (Envigo, France) were used in these experiments. They were housed in a temperature-controlled room (23±1° C.) under diurnal lighting conditions (lights on from 6 a.m to 6 p.m). Rats arrived 15 days prior to the beginning of the experiments. They were maintained in groups of 2 in 800 cm2 plastic cages comprising minimal environmental enrichment (nesting cardboard material, wooden gnowing sticks), and had free access to food and water.
For surgical implantation of kindling electrodes, rats weighing 220-240 g were anesthetized using isoflurane (5% induction; 2% maintenance) and treated with the analgesic drug buprenorphine (0.050 mg/kg, i.m.). Their heads were positioned in a stereotaxic apparatus with the incisor bar set at −3.3 mm. Burr holes were drilled for the placement of three stainless steel jewelers' screws in the left parietal, right frontal and occipital bones, and over the site of implantation of the electrode used for amygdala kindling. This stimulation and recording electrode consisted of a teflon-isolated bipolar stainless-steel electrode aimed at the right basolateral amygdala (stereotaxic coordinates relative to Bregma: anterior-posterior, −2.8 mm; lateral, +4.8 mm; dorso-ventral, −8.5 mm). The screws placed above the parietal cortex and the frontal cortex served as recording electrodes, and the placed above the cerebellum served as grounding. Bipolar, recording and grounding electrodes were connected to a plug anchored to the skull with dental acrylic cement.
Electrical stimulation via the kindling electrode was initiated after a recovery period of 1 week after surgery, and was performed at the same time of the day (between 9:00 and 11:00 A.M. and then between 4:00 and 6:00 P.M.) to avoid intraday variance between animals. Constant current stimulations (500 μA, biphasic square-wave pulses, 50 pulses/s for 2 s) were delivered twice daily until at least 5 fully kindled seizures (secondarily generalized stage 5 seizures) were elicited. Seizure severity was classified behaviorally according to Racine's scale: stage 1, immobility, slight facial clonus (eye closure, twitching of vibrissae, sniffing); stage 2, head nodding associated with more severe facial clonus; stage 3, clonus of one forelimb; stage 4, rearing, often accompanied by bilateral forelimb clonus; stage 5, tonic-clonic seizure accompanied by loss of balance and falling.
To evaluate the effect of SYN-PN on seizure severity, SYN-PN was prepared in saline and injected intraperitoneally at 5, 10 or 50 mg/kg, 45 min prior to electrical stimulation in fully kindled rats. Briefly, the day after the last stage 5 seizure, on day 1, the rats received a first dose of SYN-PN (5 mg/kg) and were stimulated 45 minutes later. At D2 and D5, they were stimulated without SYN-PN injection to evaluate the residual effect of the 5 mg/kg dose. On D6, they received a second dose of SYN-PN (10 mg/kg) and were stimulated 45 minutes later. They were then simulated at D7 and D8 to evaluate the residual effect of the 10 mg/kg dose. On D9, rats received a third dose of SYN-PN (50 mg/kg) and were stimulated 45 minutes later. They were then simulated at D10 and D11 to evaluate the residual effect of the 50 mg/kg dose. Finally, they received 1) a daily dose of SYN-PN at 5 mg/kg from D12 to D15 and were stimulated at D16; 2) a daily dose of SYN-PN at 10 mg/kg from D19 to D22 and were stimulated at D23; and 3) a daily dose of SYN-PN at 20 mg/kg from D26 to D29 and were stimulated at D30. The treatments were then stopped. However, to assess the persistence of the effects of this series of treatments, rats continued to be stimulated at 7, 15, 42 and 56 days after the last treatment at 20 mg/kg.

[2] = test system: immortalized human microglia (IHM); experiment: Expression of inflammation markers in immortalized human microglia activated by IL-1β (RT-qPCR); type: cell-based; details: pre-treated with 150 nM and 300 nM 3 hours before IL-1β (3 ng/mL); RNA after 5 hours
Experimental: Immortalized human microglia (IHM; Innoprot, Derio, Spain) were seeded at 13,000 cells/cm^2 in T75 flasks coated with type I human collagen (10 μL/mL, Coating Matrix Kit, Innoprot). The medium was formulated for optimal growth of human brain-derived microglia in vitro, and contained 1% pen/strep, 1% of microglia growth supplement and 5% fetal bovine serum (Microglial Cell Medium Kit, Innoprot).
IHM were seeded (10,000 cells/cm^2) in type 1 collagen-coated 6-well plates. When cell culture was about 80% confluent, IL-1β (R&D Systems) was added to the culture medium at 0.5 ng/mL, 1.5 ng/mL or 3.0 ng/mL. At t=0, each well received 1 mL of medium only (controls) or 1 mL of medium containing the desired concentration of IL-1β. Cells were harvested at t=0 h, t=3 h, t=8 h and t=24 h. Each tested condition was repeated as triplicates.
The effect of synaptamide phosphonate has been tested as illustrated in FIG. 5. […]
PCR amplification of targeted cDNAs was performed using the Rotor-Gene Q system (Qiagen) and the QuantiTect SYBR Green PCR Kit (Qiagen).
The ScDNA copy number measured after qPCR was used to estimate the RT step yield for each sample, taking into account that the same number of SmRNA copies was initially present in all samples before RT step. This yield made it possible to standardize the values obtained for all the genes of interest measured from the same sample. […]

CCC=CCC=CCC=CCC=CCC=CCC=CCCC(=O)NCCP(=O)(O)O [synaptamide phosphonate]
rats with absence of seizures 15 days after stopping treatment ([1]; all rats (n=15)): 7/15
decrease of mean seizure severity ([1]; all rats (n=15), D1, 5 mg/kg i.p. 45 min before stimulation): 19.0±7.9%
seizure severity compared to D0 ([1]; all rats (n=15), D2, day after 5 mg/kg, no injection): −23.1±8.1%
effect of 5 mg/kg on seizure severity at D5 ([1]; all rats (n=15), D5, no injection): lost
seizure severity compared to D0 ([1]; all rats (n=15), D6, 10 mg/kg i.p. 45 minutes before stimulation): not significantly different from that at D0
seizure severity compared to D0 ([1]; all rats (n=15), D16, after daily 5 mg/kg from D12): −42.0±9.2%
seizure severity compared to D0 ([1]; all rats (n=15), the next day and the day after 10 mg/kg (D7-D8), at the most): −39.4±11.1%
delay of the maximum effect on seizure severity after administration ([1]; any dose): 24 to 48 h
rats responding to 5 mg/kg ([1]; decrease in seizure severity first observed at 5 mg/kg i.p.): 8/15
rats responding to 10 mg/kg ([1]; decrease in seizure severity first observed at 10 mg/kg i.p.): 3/15
rats responding to 50 mg/kg ([1]; decrease in seizure severity first observed at 50 mg/kg i.p.): 4/15
seizure severity compared to D0 ([1]; rats responding to 5 mg/kg (n=8), D16 after daily 5 mg/kg): −87.0±13.0%
seizure severity compared to D0 ([1]; rats responding to 5 mg/kg (n=8), same day of administration): −36.4±11.7%
average severity of seizures on increasing the daily dose from 5 to 10, then to 20 mg/kg ([1]; rats responding to 5 mg/kg, 4 daily doses each): did not change the average severity of seizures
rats remaining at stage 0 ([1]; rats responding to 5 mg/kg, D16 after daily 5 mg/kg): 7/8
rats free from seizures ([1]; rats responding to 5 mg/kg, after 4 daily doses of 5 mg/kg): 7/8
rats free from seizures ([1]; rats responding to 5 mg/kg, after 4 daily doses of 10 mg/kg): 4/8
decrease of seizure severity compared to D0 ([1]; rats responding to 10 mg/kg (n=3)): not significantly different from DO
severity reduction at D16 ([1]; rats responding to 10 mg/kg (n=3), after 5 mg/kg for 4 days): maintained
decrease of seizure severity compared to D0 ([1]; rats responding to 50 mg/kg (n=4)): too variable to observe a significant effect
seizure reduction at D16 ([1]; rats responding to 50 mg/kg (n=4), after 5 mg/kg for 4 days): only transient and lost at D16
duration of the protective effect against seizures after stopping treatment ([1]; rats responding to 50 mg/kg, after high doses (20 mg/kg)): up to 15 days
persistence of seizure freedom after stopping treatment ([1]; substantial population of rats): free of seizures, even after almost two months of stopping treatment
IL-1β-mediated cytokine and chemokine gene induction [2]: dramatic reduction
